This note sets out measurements from US8268575B2, “NAD biosynthesis systems” (Washington University, priority 2004, dated 2012).

The target of assay [1] is T1, purified recombinant mouse Nmnat (Mus musculus, UniProt Q9EPA7).
T1 construct: the purified full-length His-tagged Nampt and Nmnat recombinant proteins; made in house; host or cells: E. coli BL21(DE3)pLysS
The assay can be described thus: enzyme-coupled fluorometric assay, kinetic parameters for Nmnat. The class given is biochemical. As to conditions: substrate of Nmnat. As for the experimental part: (§1) Enzymatic activities of recombinant Nampt and Nmnat proteins were measured by an enzyme-coupled fluorometric assay (see e.g. FIG. 2A). In this enzyme-coupled reaction, NAD is converted to NADH by alcohol dehydrogenase, and the fluorescence of NADH is detected in a fluorometer. To establish this assay system, optimal reaction conditions for Nmnat were initially examined by varying ATP and Mg^2+ concentrations and pH of the reaction buffer. The resultant reaction buffer for Nmnat contained 50 mM HEPES [pH 7.4], 0.02% BSA, 12 mM MgCl2, 2 mM ATP, 1.5% ethanol, and 30 μg/ml alcohol dehydrogenase to convert NAD to NADH. To determine the kinetic parameters for Nmnat, 30 ng of purified His-tagged Nmnat and varying concentrations of NMN were added to 1 ml of the reaction buffer. The reactions were run at 37° C. and quenched at six time points by the addition of 250 μl of 0.5 M EDTA. The production of NADH was measured by excitation at 340 nm and emission at 460 nm in a fluorometer. […] NADH production was measured continuously in a fluorometer.

Assay [2] deals with GAL4 DBD fused to the Sir2α catalytic core domain (GAL4 DBD-mCORE) (Mus musculus, UniProt Q923E4). The following applies: 5 mM, added 24 h after transfection, NIH3T3 cells.
GAL4 DBD fused to the Sir2α catalytic core domain (GAL4 DBD-mCORE), sequence (Q923E4 with tags, fused parts or gaps): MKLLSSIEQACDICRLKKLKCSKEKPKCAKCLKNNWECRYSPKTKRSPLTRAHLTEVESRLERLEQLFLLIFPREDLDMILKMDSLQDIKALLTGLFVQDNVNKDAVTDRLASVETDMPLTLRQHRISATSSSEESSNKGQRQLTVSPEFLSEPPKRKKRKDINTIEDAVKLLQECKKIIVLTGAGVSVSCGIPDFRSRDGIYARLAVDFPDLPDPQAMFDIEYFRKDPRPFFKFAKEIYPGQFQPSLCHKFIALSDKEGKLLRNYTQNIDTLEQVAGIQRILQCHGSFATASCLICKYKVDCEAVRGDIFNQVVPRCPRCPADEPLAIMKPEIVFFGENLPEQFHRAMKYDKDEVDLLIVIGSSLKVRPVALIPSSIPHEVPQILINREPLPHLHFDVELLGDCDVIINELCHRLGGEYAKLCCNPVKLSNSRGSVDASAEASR
Method: A reporter gene transcription assay using a GAL4 DNA binding domain (GAL4 DBD) fusion system was developed to monitor the transcriptional regulatory activity of the mouse Sir2 ortholog, Sir2α. […] This assay system used the GAL4 DBD fused to the Sir2α catalytic core domain (GAL4 DBD-mCORE) and a luciferase reporter that has a thymidine kinase minimal promoter and four GAL4 binding sites.
For the luciferase assay, 1.2×10^5 NIH3T3 cells were plated in 6 cm dishes. 24 h after plating, cells were transfected for 3 h with 380 ng of pUAS4tk-luc as a reporter, 1.5 μg of pM or pM-GAL4 DBD-mCORE as an effector, and 38 ng of pRL-SV40 (Promega, Wis.) as a normalization control by using Superfect (Qiagen). Transfectants were harvested 48 h after transfection, and luciferase activity was measured with the Dual-Luciferase Reporter Assay System (Promega, Wis.) and a SIRIUS luminometer (Berthold Detection Systems, Germany) according to the manufacturers' protocols. Background luminescence was subtracted and was always less than 1% of measured values. Transfection efficiencies were normalized based on Renilla luciferase activities. […] To examine the effects of Nampt and Nmnat on the transcriptional repressive activity of GAL4 DBD-mCORE, NIH3T3 cells were co-transfected with indicated amounts of Nampt and Nmnat expression vectors along with reporter, effector and normalization control plasmids.
Assay [3] relates to NIH3T3 cells. The assay can be described thus: total cellular NAD levels by HPLC in NIH3T3 cells. The class given is cell-based, mouse. As to conditions: 5 mM added to the medium. As for the experimental part: Total cellular levels of NAD was measured in the NIH3T3 cell lines overexpressing the untagged enzymes. High performance liquid chromatography was used to measure NAD (Neubert et al., Biochim. Biophys. Acta. (1964) 92, 610-612; Emanuelli et al., J. Chromatogr. (1996) B. 676, 13-18). Briefly, 5×10^5 cells were plated in 6 cm dishes and harvested 48 h later in 800 μl of ice-cold PBS. Cells were then spun down and lysed with 300 μl of 1 M HClO4 on ice for 10 min. Lysates were cleared by centrifugating at 4° C. at 18,000 g for 5 minutes. Cleared lysates (240 μl) were neutralized by adding 80 μl of 3M K2CO3 and incubating on ice for 10 minutes. After centrifuging for 10 min, 100 μl of the supernatant were mixed with 400 μl of Buffer A and loaded onto the column. The HPLC was run at a flow rate of 1 ml/min with 100% Buffer A from 0 to 5 min, a linear gradient to 95% Buffer A and 5% Buffer B (100% methanol) from 5 to 6 min, 95% Buffer A and 5% Buffer B from 6 to 11 min, a linear gradient to 85% Buffer A and 15% Buffer B from 11 to 13 min, 85% Buffer A and 15% Buffer B from 13 to 23 min, and a linear gradient to 100% Buffer A from 23 to 24 min. NAD was eluted as a sharp peak at 22 min. The amount of NAD was quantitated based on the peak area compared to a standard curve.

Assay [4] concerns the target T2, purified recombinant mouse Nampt (Mus musculus, UniProt Q99KQ4).
T2 construct: the purified full-length His-tagged Nampt and Nmnat recombinant proteins; made in house; host or cells: E. coli BL21(DE3)pLysS
The assay can be described thus: enzyme-coupled fluorometric assay, kinetic characterization of Nampt. The class given is biochemical. As to conditions: substrate of Nampt. As for the experimental part: as §1

“Also recorded” adds a separate entry of the source.

For orientation: Vmax means the rate approached at saturating substrate. A word on the Km: it is the concentration of substrate that gives half-maximal velocity.

T1 sequence (Q9EPA7 whole entry): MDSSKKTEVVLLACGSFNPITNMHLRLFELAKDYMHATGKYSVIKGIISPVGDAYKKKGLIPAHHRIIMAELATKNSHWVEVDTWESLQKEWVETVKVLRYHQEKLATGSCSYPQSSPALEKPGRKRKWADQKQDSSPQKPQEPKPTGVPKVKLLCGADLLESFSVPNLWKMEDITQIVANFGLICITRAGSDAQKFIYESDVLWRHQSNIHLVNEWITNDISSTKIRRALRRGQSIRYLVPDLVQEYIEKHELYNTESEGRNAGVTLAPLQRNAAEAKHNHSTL
T2 sequence (Q99KQ4 whole entry): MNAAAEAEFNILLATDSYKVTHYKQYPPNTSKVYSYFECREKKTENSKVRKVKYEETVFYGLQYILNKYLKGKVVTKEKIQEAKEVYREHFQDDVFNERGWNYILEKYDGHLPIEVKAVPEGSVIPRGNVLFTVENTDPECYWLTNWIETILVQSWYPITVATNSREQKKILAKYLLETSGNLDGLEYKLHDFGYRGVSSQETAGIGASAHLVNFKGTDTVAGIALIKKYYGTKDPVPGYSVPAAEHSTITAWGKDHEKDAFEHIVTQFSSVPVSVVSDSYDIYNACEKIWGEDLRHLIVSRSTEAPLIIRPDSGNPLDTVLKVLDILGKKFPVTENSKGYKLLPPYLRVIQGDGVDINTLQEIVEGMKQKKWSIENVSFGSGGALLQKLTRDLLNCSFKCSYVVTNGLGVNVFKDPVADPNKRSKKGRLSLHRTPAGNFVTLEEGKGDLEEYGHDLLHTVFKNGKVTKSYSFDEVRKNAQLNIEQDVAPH

In the case of `NC(=O)c1ccc[n+]([C@@H]2O[C@H](COP(=O)([O-])O)[C@@H](O)[C@H]2O)c1` [NMN, nicotinamide mononucleotide], in assay [1], the Kcat stood at 20.0 s⁻¹ and the Vmax was found to be 34.1 µmol/min/mg. Besides, the Km in assay [1] (37° C., pH 7.4) came to 20.1 µM.

In the case of `NC(=O)c1cccnc1` [Nicotinamide, 3-pyridinecarboxamide], the “effect on transcriptional repressive activity of GAL4 DBD-mCORE” value in assay [2] is on record as “abolished”. Further, the “effect on total cellular NAD” value in assay [3] is recorded as “did not increase NAD; also recorded: unable to increase NAD”. Moreover, in assay [4], the Kcat turned out to be 0.020 s⁻¹ and the maximum rate (Vmax) was determined as 0.021 µmol/min/mg.

`O=C(O)c1cccnc1` [nicotinic acid]: the “effect on transcriptional repressive activity of GAL4 DBD-mCORE” value in assay [2] was “not”.
